Measured values from article doi:10.1101/2025.10.30.685675v2 (biorxiv, 2026).

Target: T1, HsDLH (Homo sapiens, UniProt Q96DG6)
T1 construct: gene CMBL; N-terminal His6-Twin-Strep-SUMO tag kept, E. coli BL21(DE3), Ni-NTA
T1 sequence (Q96DG6 1-245): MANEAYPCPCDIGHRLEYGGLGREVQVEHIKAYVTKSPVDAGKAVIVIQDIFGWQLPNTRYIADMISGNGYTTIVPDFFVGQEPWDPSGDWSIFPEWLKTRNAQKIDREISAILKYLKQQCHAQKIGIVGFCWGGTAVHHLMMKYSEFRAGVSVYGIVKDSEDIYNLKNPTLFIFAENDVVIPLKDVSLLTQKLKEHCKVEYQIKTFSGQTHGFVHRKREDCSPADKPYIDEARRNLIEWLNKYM
Assay type: biochemical

Compound: CCOP(=O)(OCC)Oc1ccc2c(c1)Oc1cc(OP(=O)(OCC)OCC)ccc1C21OC(=O)c2ccccc21 [FDDEP]
- KM: displays very weak activity towards the fluorogenic phosphotriester FDDEP
